{"source": "patent US8609718B2", "about": "“Pharmaceutical composition used in treatment of hyperproliferative skin conditions and malignant melanomas comprising pachastrissamine as active ingredient” (Catholic University Industry Academy Cooperation Foundation, priority 2009, dated 2013)", "key": {"FoxO3a [1]": {"system": "FoxO3a", "test": "FoxO3a immunoprecipitation and ubiquitin western blotting in HEK293T", "assay_type": "cell-based", "conditions": "pachastrissamine and EGF", "description": "Then, immunoprecipitation was carried out using FoxO3a antibody. The sample obtained from immunoprecipitation was subjected to western blotting by using ubiquitin antibody so as to carry out comparative analysis."}, "HaCaT cell line [2]": {"system": "HaCaT cell line", "test": "Cell counting by hemocytometer, trypan blue exclusion, HaCaT", "assay_type": "cell-based, human", "description": "A HaCaT cell line was cultured in the same manner as described in Example 1. The cultured HaCaT cell line was plated onto a 60 mm plate at a concentration of 5×10^4 cells/well, and cultured in a CO2 incubator (37° C., 5%) for 24 hours. The cultured cells in respective plates were treated with pachastrissamine at a concentration of 10 μg/ml, and cultured in a CO2 incubator (37° C., 5%) for 24, 36, and 48 hours, respectively. After the culturing, the cells were washed with PBS, treated with trypsin-EDTA, and completely detached from the plate. Then, a hemocytometer was used to count the cells through trypan blue exclusion.\nHaCaT, B16F10 and A375 cell lines were cultured in the same manner as described in Example 1. The cultured HaCaT cell line was plated onto a 60 mm plate at a concentration of 5×10^4 cells/well, and cultured in a CO2 incubator (37° C., 5%) for 24 hours. The cultured respective cells were divided into 4 groups. One group was added with only pachastrissamine (PA) at a concentration of 10 μg/ml; another group was added with lithium chloride (apoptosis inhibiting material) (at a final concentration of 300 nM) as well as pachastrissamine at a concentration of 10 μg/ml (PA+Li); and a third group was added with only lithium chloride (Li). The last group was a negative control group (Con) and was added with nothing. These groups were cultured in a CO2 incubator (37° C., 5%) for 24 hours, and then the number of cells were measured in the same manner as described in Example 2-2."}, "FoxO3a [3]": {"system": "FoxO3a", "test": "Western blotting of FoxO3a protein expression in HaCaT", "assay_type": "cell-based, human", "description": "A HaCaT cell line was cultured in the same manner as described in Example 1. […] Then, western blotting was carried out by using FoxO3a antibody as a primary antibody.\nThen, western blotting was carried out by using FoxO3a antibody as a primary antibody so as to carry out comparative analysis on the level of protein expression."}, "HaCaT cell line [4]": {"system": "HaCaT cell line", "test": "MTT cell viability analysis (cytotoxicity), HaCaT", "assay_type": "cell-based, human", "conditions": "24 hours, FIG. 1", "description": "Pachastrissamine's cytotoxicity on a HaCaT cell line and a malignant melanoma cell line was researched through MTT cell viability analysis.\nFirst, each of a HaCaT cell line (German Cancer Research, obtained from prof. N. Fuseni, Germany), and two kinds of malignant melanoma cell lines, B16F10 (B16) and A375 were inoculated into a DMEM (Dulbecco's Modified Eagle's Medium) culture medium added with 10% FBS (Thermo Fisher Scientific Inc.), 100 unit/ml penicillin, and 100 μg/ml streptomycin, and then cultured in a CO2 incubator (Form a Scientific, Inc.) (37° C., 5%).\nThe cultured HaCaT, B16F10, and A375 cells were plated onto a 96-well plate at a concentration of 5×10^4 cells/well, and cultured in a CO2 incubator (37° C., 5%) for 24 hours. The cells in respective wells were treated with pachastrissamine and phytosphingosine at various concentrations of 0, 0.9, 1.8, 3.7, 7.5, 10 μg/ml, and cultured in a CO2 incubator (37° C., 5%) for 24 hours. After the culturing, in a state where the culture medium existed, each well was added with 5 mg/ml MTT reagent at a concentration of 20 μl/[…], and cultured in an incubator for 2 hours. After 2 hours, the culture medium was removed, and each well was added with 150 μl of DMSO (dimethyl sulfoxide). Then, a spectrophotometer was used to measure the absorbance at 540 nm, thereby analyzing the cell viability. Herein, the cell viability was represented as a relative value with respect to 100% of cell viability in a control group not treated with pachastrissamine and phytosphingosine."}, "FoxO3a [5]": {"system": "FoxO3a", "test": "Immunocytochemistry of intracellular FoxO3a distribution", "assay_type": "cell-based", "description": "In order to carry out Immunocytochemistry analysis, cells were transferred to chamber slides, and cultured in a CO2 incubator (37° C., 5%) for 24 hours. After about 12 hours of serum starvation, the cultured cell lines were treated with 10 μg/ml of pachastrissamine for 24 hours. The cell lines treated with pachastrissamine were fixed with 100% methanol, and washed with PBS. Then, in order to make the cells permeable, the cell lines were reacted in a 0.5% Triton X-100 and washed with a PBS solution. Then, by using a solution including 10% FBS and 0.1% gelatin, blocking was carried out at room temperature for 1 hour, and FoxO3a antibody was reacted at 4° C. for 12 hours. After the reaction, the cells were washed with PBS, reacted with a secondary antibody of Alex488 (invitrogen) at room temperature, and washed with PBS again. Finally, for nuclear stain, the cells were reacted with DAPI and washed with PBS. The slide was washed with PBS, attached with glass coverslip, and analyzed through a microscope.\nAfter the cells with or without over-expression of beta-catenin were treated with pachastrissamine, the distribution of intracellular FoxO3a protein was determined in the same manner as described in Example 4-3."}}, "data": [{"smiles": "CCCCCCCCCCCCCC[C@@H]1OC[C@H](N)[C@@H]1O", "note": "[pachastrissamine]", "values": [{"measurement": "ubiquitination degree of FoxO3a increased by EGF", "setting": "FoxO3a [1]", "result": "decreased"}, {"measurement": "number of cells over culturing time (cell proliferation)", "setting": "HaCaT cell line [2]; 10 μg/ml, 24, 36 and 48 hours, control group increased, FIG. 2b", "result": "the number of cells decreased"}, {"measurement": "number of cells compared to no treatment", "setting": "HaCaT cell line [2]; 10 μg/ml, 24 hours, FIGS. 2C, 2D", "result": "the number of cells was decreased"}, {"measurement": "number of cells with lithium chloride as well as pachastrissamine, compared to only pachastrissamine", "setting": "HaCaT cell line [2]; pachastrissamine 10 μg/ml + lithium chloride 300 nM (PA+Li), 24 hours", "result": "the number of cells was higher"}, {"measurement": "protein expression level of FoxO3a compared to control group", "setting": "FoxO3a [3]; 5 and 10 μg/ml, 24 hours, FIG. 4A", "result": "increased"}, {"measurement": "extent of protein expression of FoxO3a, pachastrissamine and PD98059 together", "setting": "FoxO3a [3]; pachastrissamine together with PD98059, versus each single material, FIG. 4E", "result": "it was not found that the extent of protein expression was increased"}, {"measurement": "extent of protein expression of FoxO3a, pachastrissamine and U0126 together", "setting": "FoxO3a [3]; pachastrissamine together with U0126, versus each single material, FIG. 4E", "result": "significantly increased compared to other samples treated with each single material"}, {"measurement": "level of protein expression of FoxO3a, single material", "setting": "FoxO3a [3]; treated as in Example 3-2, compared to negative control, FIG. 4E", "result": "the amount of FoxO3a protein was increased"}, {"measurement": "cell viability (number of surviving cells) with increasing concentration", "setting": "HaCaT cell line [4]; 0, 0.9, 1.8, 3.7, 7.5, 10 μg/ml", "result": "the number of surviving cells was reduced"}, {"measurement": "cytotoxicity compared with phytosphingosine", "setting": "HaCaT cell line [4]", "result": "lower cytotoxicity than phytosphingosine"}, {"measurement": "movement of FoxO3a protein to a nucleus", "setting": "FoxO3a [5]; 10 μg/ml, 24 hours, FIG. 4D", "result": "significantly increased"}, {"measurement": "distribution of intracellular FoxO3a protein in cells with over-expression of beta-catenin", "setting": "FoxO3a [5]; HaCaT with over-expression of beta-catenin (FoxO3a mostly in cytosol before treatment), FIG. 5D", "result": "moved into the nucleus again"}]}]}
